Measurements taken from patent publication US9944666B2, “Compounds that are S1P modulating agents and/or ATX modulating agents” (BIOGEN MA INC., priority 2012, dated 2018).

The compounds below were run against T1, Human ATX protein (Homo sapiens, UniProt Q13822) (assay: ATX biochemical FRET assay with FS-3 substrate). Conditions: FS-3 2 μM, ATX 1.0 μg/mL, room temperature 2 hours, fluorescence 485/538 nm.
T1 construct: made in house
From the text: ATX (Autotaxin) is a 125 KDa glycoprotein with lysophospholipase D (LPLD) activity that generates the bioactive lipid lysophosphatidic acid (LPA) from lysophosphatidylcholine (LPC). The ATX biochemical assay utilizes a FRET (fluorescence resonance energy transfer) technology platform. The fluorescence signal of FRET substrate FS-3 is quenched due to intra-molecular FRET of a fluorophore to a non-fluorescing quencher (Ferguson, C. G., et al., Org Lett. 2006 May 11; 8(10): 2023-2026, which is incorporated by reference in its entirety). ATX catalyzes the hydrolysis of the substrate which separates the dabsyl quencher from the fluorescein reporter, which becomes fluorescent. The reaction is monitored by a SpectraMax M5 (Molecular Devices, Sunnyvale, Calif.) with at excitation wavelength 485 nm and emission wavelength […].
Fatty acid free-BSA (Sigma A8806): 10 mg/ml, in H2O, stored at 4° C.
2×ATX assay buffer: 100 mM Tris, 280 mM NaCl, 10 mM KCl, 2 mM CaCl2, 2 mM MgCl2, pH 7.4.
Human ATX protein: expressed and purified in house. Stored at −80° C.
Substrate FS-3 (Echelon, L-2000): 100 μg in 77.74 μL H2O (1 mM stock), stored at −20° C.
384-well flat bottom plates—Corning #3575.
Compound dilution—All compounds were provided at 10 mM in 100% DMSO. In the first well, 2 μL of 10 mM compound was added to 78 μL of DMSO (1:40 dilution). In subsequent wells 3-fold dilution (total 10 dilutions) were performed.
1×ATX assay buffer was made up with a final concentration of 1 mg/mL fatty acid free-BSA using 2×ATX assay buffer, 10 mg/ml fatty acid free-BSA and ddH2O.
ATX protein was diluted with 1×ATX assay buffer to a concentration of 1.32 μg/mL (1.32×). 38 μL was added per well to the assay plate. The final concentration of ATX in the reaction as 1.0 μg/mL.
2 μL per well of compounds was transferred to provide the desired concentration. The plate was centrifuged, then incubated at room temperature for 30 minutes on the shaker.
FS-3 was diluted with 1×ATX assay buffer to a concentration of FS-3 of 10 μM (5×). Then, 10 μL was added per well to the assay plate. The final concentration of FS-3 in the reaction was 2 μM. The plate was centrifuged. The plate was kept shaking at room temperature for 2 hours. Because FS-3 substrate is light sensitive, plates were kept covered and protected from light.
Fluorescence was measured using SpectraMax M5 (excitation at 485 nm/emission at 538 nm, top read).

| SMILES | IC50 [nM] |
| --- | --- |
| CC(c1ccc2c(C(F)F)c(O[C@H]3CC[C@@H](C)CC3)ccc2c1)N1C2CCCC1CC(C(=O)O)C2 (single isomer, unassigned; enantiomer 1) [Example 138, 9-(1-(5-(difluoromethyl)-6-((cis-4-methylcyclohexyl)oxy)naphthalen-2-yl)ethyl)-9-azabicyclo[3.3.1]nonane-3-carboxylic acid, enantiomer 1] | ≤ 100 |
| CCC(c1ccc2c(C(F)F)c(O[C@H]3CC[C@@H](C)CC3)ccc2c1)N1C2CCC1CC(C(=O)O)C2 (single isomer, unassigned; enantiomer 1) [Example 140, 8-(1-(5-(difluoromethyl)-6-((cis-4-methylcyclohexyl)oxy)naphthalen-2-yl)propyl)-8-azabicyclo[3.2.1]octane-3-carboxylic acid, enantiomer 1] | ≤ 100 |
| O=C(O)C1CC2CCC(C1)C2NCc1ccc2c(C(F)(F)F)c(O[C@H]3CC[C@@H](C(F)(F)F)CC3)ccc2c1 (single isomer, unassigned; enantiomer 1) [Example 162, N-(5-trifluoromethyl-6-(cis-4-trifluoromethyl-cyclohexyloxy)-naphthalen-2-ylmethyl)-8-aminobicyclo[3.2.1]octane-3-carboxylic acid, enantiomer 1] | ≤ 250 |
| CC(c1ccc2c(C(F)(F)F)c(O[C@H]3CC[C@@H](C(F)(F)F)CC3)ccc2c1)N1C2CCC1CC(C(=O)O)C2 (single isomer, unassigned; enantiomer 1) [Example 173, 8-(1-(5-(trifluoromethyl)-6-((cis-4-(trifluoromethyl)cyclohexyl)oxy)naphthalen-2-yl)ethyl)-8-azabicyclo[3.2.1]octane-3-carboxylic acid, enantiomer 1] | ≤ 100 |
| CC(c1ccc2c(C(F)(F)F)c(O[C@H]3CC[C@@H](C)CC3)ccc2c1)N1C2CCC1CC(C(=O)O)C2 (single isomer, unassigned; enantiomer 2) [Example 131, 8-(1-(6-((cis-4-Methylcyclohexyl)oxy)-5-(trifluoromethyl)naphthalen-2-yl)ethyl)-8-azabicyclo[3.2.1]octane-3-carboxylic acid, enantiomer 2] | ≤ 100 |
| CC[C@H]1CC[C@@H](Oc2ccc3cc(CN4C5CCCC4CC(C(=O)O)C5)ccc3c2)CC1 (stereo partly drawn) [Example 83, 9-((6-((cis-4-ethylcyclohexyl)oxy)naphthalen-2-yl)methyl)-9-azabicyclo[3.3.]nonane-3-carboxylic acid] | ≤ 500 |
| O=C(O)C1CC2CCCC(C1)N2Cc1ccc2c(C(F)(F)F)c(O[C@H]3CC[C@@H](C(F)(F)F)CC3)ccc2c1 (stereo partly drawn) [Example 84, 9-((5-(trifluoromethyl)-6-((cis-4-(trifluoromethyl)cyclohexyl)oxy)naphthalen-2-yl)methyl)-9-azabicyclo[3.3.1]nonane-3-carboxylic acid] | ≤ 100 |
| O=C(O)C1CC(NCc2ccc3c(C(F)(F)F)c(O[C@H]4CC[C@@H](C(F)(F)F)CC4)ccc3c2)C12CCCCC2 (stereo partly drawn) [Example 85, 3-(((5-(trifluoromethyl)-6-((cis-4-(trifluoromethyl)cyclohexyl)oxy)naphthalene-2-yl)methyl)amino)spiro[3.5]nonane-1-carboxylic acid] | ≤ 500 |
| CC(c1ccc2c(C(F)(F)F)c(O[C@H]3CC[C@@H](C(F)(F)F)CC3)ccc2c1)N1C2CCCC1CC(C(=O)O)C2 (stereo partly drawn) [Example 88] | ≤ 100 |
| CC(c1ccc2c(C(F)(F)F)c(O[C@H]3CC[C@@H](C)CC3)ccc2c1)N1C2CCCC1CC(C(=O)O)C2 (stereo partly drawn) [Example 93, 9-(1-(6-((cis-4-Methylcyclohexyl)oxy)-5-(trifluoromethyl)naphthalen-2-yl)ethyl)-9-azabicyclo[3.3.1]nonane-3-carboxylic acid] | ≤ 100 |
| C[C@H]1CC[C@@H](Oc2ccc3cc(CN4C5CCC4CC(C(=O)O)C5)ccc3c2C(F)(F)F)CC1 (stereo partly drawn) [Example 96, 8-((6-((cis-4-Methylcyclohexyl)oxy)-5-(trifluoromethyl)naphthalen-2-yl)methyl)-8-azabicyclo[3.2.1]octane-3-carboxylic acid] | ≤ 500 |
| C[C@H]1CC[C@@H](Oc2ccc3cc(CN4C5CCCC4CC(C(=O)O)C5)ccc3c2C(F)(F)F)CC1 (stereo partly drawn) [Example 97, 9-((6-((cis-4-Methylcyclohexyl)oxy)-5-(trifluoromethyl)naphthalen-2-yl)methyl)-9-azabicyclo[3.3.1]nonane-3-carboxylic acid] | ≤ 100 |
| CCC(c1ccc2c(C(F)F)c(O[C@H]3CC[C@@H](C)CC3)ccc2c1)N1C2CCC1CC(C(=O)O)C2 (stereo partly drawn) [Example 99, 8-(1-(5-(difluoromethyl)-6-((cis-4-methylcyclohexyl)oxy)naphthalen-2-yl)propyl)-8-azabicyclo[3.2.1]octane-3-carboxylic acid] | ≤ 100 |
| O=C(O)C1CC2CCCC(C1)N2Cc1ccc2c(C(F)F)c(O[C@H]3CC[C@@H](C(F)(F)F)CC3)ccc2c1 (stereo partly drawn) [Example 100, 9-((5-(difluoromethyl)-6-((cis-4-(trifluoromethyl)cyclohexyl)oxy)naphthalene-2-yl)methyl)-9-azabicyclo[3.3.1]nonane-3-carboxylic acid] | ≤ 100 |
| O=C(O)C1CC2CCCC(C1)N2Cc1ccc2c(C(F)(F)F)c(O[C@H]3CC[C@@H](C(F)(F)F)CC3)ccc2n1 (stereo partly drawn) [Example 101, 9-((5-(trifluoromethyl)-6-((cis-4-(trifluoromethyl)cyclohexyl)oxy)quinolin-2-yl)methyl)-9-azabicyclo[3.3.1]nonane-3-carboxylic acid] | ≤ 100 |
| CC(c1ccc2c(C(F)(F)F)c(O[C@H]3CC[C@@H](C(F)(F)F)CC3)ccc2n1)N1C2CCC1CC(C(=O)O)C2 (stereo partly drawn) [Example 102, 8-(1-(5-(trifluoromethyl)-6-((cis-4-(trifluoromethyl)cyclohexyl)oxy)quinolin-2-yl)ethyl)-8-azabicyclo[3.2.1]octane-3-carboxylic acid] | ≤ 100 |
| C[C@H]1CC[C@@H](Oc2ccc3cc(C(=O)N4C5CCC4CC(C(=O)O)C5)ccc3c2C(F)(F)F)CC1 (stereo partly drawn) [Example 104, 8-(6-((cis-4-Methylcyclohexyl)oxy)-5-(trifluoromethyl)-2-naphthoyl)-8-azabicyclo[3.2.1]octane-3-carboxylic acid] | ≤ 100 |
| O=C(O)C1CC2CCCC(C1)N2C(=O)c1ccc2c(C(F)(F)F)c(O[C@H]3CC[C@@H](C(F)(F)F)CC3)ccc2c1 (stereo partly drawn) [Example 105, 9-(5-(trifluoromethyl)-6-((cis-4-(trifluoromethyl)cyclohexyl)oxy)-2-naphthoyl)-9-azabicyclo[3.3.1]nonane-3-carboxylic acid] | ≤ 100 |
| O=C(O)C1CC2CCCC(C1)N2C(=O)Cc1ccc2c(C(F)(F)F)c(O[C@H]3CC[C@@H](C(F)(F)F)CC3)ccc2c1 (stereo partly drawn) [Example 106, 9-(2-(5-(trifluoromethyl)-6-((cis-4-(trifluoromethyl)cyclohexyl)oxy)naphthalene-2-yl)acetyl)-9-azabicyclo[3.3.1]nonane-3-carboxylic acid] | ≤ 500 |
| C[C@H]1CC[C@@H](Oc2ccc3cc(C(C(=O)O)N4C5CCCC4CCC5)ccc3c2C(F)(F)F)CC1 (stereo partly drawn) [Example 109, 2-(9-Azabicyclo[3.3.1]nonan-9-yl)-2-(6-((cis-4-methylcyclohexyl)oxy)-5-(trifluoromethyl)naphthalen-2-yl)acetic acid] | ≤ 250 |
| CC[C@H]1CC[C@@H](Oc2ccc3cc(CN4C5CCCC4CC(C(=O)O)C5)ccc3c2Cl)CC1 (stereo partly drawn) [Example 110, 9-((5-Chloro-6-((cis-4-ethylcyclohexyl)oxy)naphthalen-2-yl)methyl)-9-azabicyclo[3.3.1]nonane-3-carboxylic acid] | ≤ 100 |
